Reference: Sander's compilation of Henry's law constants (doi:10.1007/s002160101077)

Test: Henry solubility constant Hcp at 298.15 K (mol/(m3 Pa))
Details: reference: Pfeifer et al. (2001)

COc1c(Br)c(Br)c(Br)c(Br)c1Br [pentabromomethoxybenzene]
Henry solubility constant Hcp: 1

COc1cc(Cl)c(Cl)cc1Cl [1,2,4-trichloro-5-methoxybenzene]
Henry solubility constant Hcp: 0.011

COc1ccc(Br)cc1 [1-bromo-4-methoxybenzene]
Henry solubility constant Hcp: 0.011

COc1cccc(Cl)c1 [1-chloro-3-methoxybenzene]
Henry solubility constant Hcp: 0.045

COc1c(Br)cc(Br)c(Cl)c1Br [2,4,6-tribromo-3-chloro-1-methoxybenzene]
Henry solubility constant Hcp: 0.0091

COc1c(Br)cc(Cl)cc1Br [2,6-dibromo-4-chloro-1-methoxybenzene]
Henry solubility constant Hcp: 0.011

COc1c(Cl)cccc1Br [2-bromo-6-chloro-1-methoxybenzene]
Henry solubility constant Hcp: 0.014

COc1cc(Cl)cc(Cl)c1Br [2-bromo-3,5-dichloro-1-methoxybenzene]
Henry solubility constant Hcp: 0.011

COc1cc(Cl)c(Br)c(Cl)c1Br [2,4-dibromo-3,5-dichloro-1-methoxybenzene]
Henry solubility constant Hcp: 0.0091

COc1c(Cl)c(Cl)cc(Br)c1Cl [3-bromo-2,5,6-trichloro-1-methoxybenzene]
Henry solubility constant Hcp: 0.01

COc1cccc(Cl)c1Cl [1,2-dichloro-3-methoxybenzene]
Henry solubility constant Hcp: 0.022

COc1ccccc1Br [1-bromo-2-methoxybenzene]
Henry solubility constant Hcp: 0.029

COc1c(Cl)cc(Cl)cc1Br [2-bromo-4,6-dichloro-1-methoxybenzene]
Henry solubility constant Hcp: 0.012

COc1cc(Cl)c(Cl)c(Cl)c1Cl [1,2,3,4-tetrachloro-5-methoxybenzene]
Henry solubility constant Hcp: 0.0065

COc1c(Br)cccc1Br [1,3-dibromo-2-methoxybenzene]
Henry solubility constant Hcp: 0.037

COc1ccc(Br)cc1Br [1,5-dibromo-2-methoxybenzene]
Henry solubility constant Hcp: 0.081

COc1ccc(Br)cc1Cl [4-bromo-2-chloro-1-methoxybenzene]
Henry solubility constant Hcp: 0.013

COc1cc(Cl)c(Cl)c(Cl)c1 [1,2,3-trichloro-5-methoxybenzene]
Henry solubility constant Hcp: 0.0044

COc1c(Cl)c(Cl)cc(Cl)c1Cl [1,2,4,5-tetrachloro-3-methoxybenzene]
Henry solubility constant Hcp: 0.0032

COc1ccc(Cl)cc1Cl [1,5-dichloro-2-methoxybenzene]
Henry solubility constant Hcp: 0.012

COc1ccc(Br)c(Cl)c1Cl [4-bromo-2,3-dichloro-1-methoxybenzene]
Henry solubility constant Hcp: 0.011

COc1cc(Cl)ccc1Cl [1,4-dichloro-2-methoxybenzene]
Henry solubility constant Hcp: 0.021

COc1c(Cl)cccc1Cl [1,3-dichloro-2-methoxybenzene]
Henry solubility constant Hcp: 0.0088

COc1c(Br)cc(Br)cc1Br [1,3,5-tribromo-2-methoxybenzene]
Henry solubility constant Hcp: 0.013

COc1c(Br)ccc(Cl)c1Cl [6-bromo-2,3-dichloro-1-methoxybenzene]
Henry solubility constant Hcp: 0.011

COc1ccc(Cl)cc1Br [2-bromo-4-chloro-1-methoxybenzene]
Henry solubility constant Hcp: 0.018

COc1c(Cl)c(Cl)c(Br)c(Cl)c1Cl [4-bromo-2,3,5,6-tetrachloro-1-methoxybenzene]
Henry solubility constant Hcp: 0.0092

COc1c(Cl)cc(Cl)cc1Cl [1,3,5-trichloro-2-methoxybenzene]
Henry solubility constant Hcp: 0.0046

COc1c(Cl)cc(Br)cc1Cl [4-bromo-2,6-dichloro-1-methoxybenzene]
Henry solubility constant Hcp: 0.012

COc1ccc(Cl)c(Cl)c1Cl [1,2,3-trichloro-4-methoxybenzene]
Henry solubility constant Hcp: 0.013

COc1cc(Br)c(Cl)cc1Cl [5-bromo-2,4-dichloro-1-methoxybenzene]
Henry solubility constant Hcp: 0.011

COc1c(Cl)c(Cl)c(Cl)c(Cl)c1Cl [pentachloromethoxybenzene]
Henry solubility constant Hcp: 0.0021

COc1c(Br)cc(Br)c(Cl)c1Cl [2,4-dibromo-5,6-dichloro-1-methoxybenzene]
Henry solubility constant Hcp: 0.0098

COc1c(Cl)ccc(Cl)c1Cl [1,2,4-trichloro-3-methoxybenzene]
Henry solubility constant Hcp: 0.0098

COc1c(Cl)cc(Cl)c(Cl)c1Cl [1,2,3,5-tetrachloro-4-methoxybenzene]
Henry solubility constant Hcp: 0.0031

COc1c(Cl)cc(Cl)c(Br)c1Cl [3-bromo-2,4,6-trichloro-1-methoxybenzene]
Henry solubility constant Hcp: 0.01

COc1c(Cl)cc(Br)c(Cl)c1Cl [4-bromo-2,3,6-trichloro-1-methoxybenzene]
Henry solubility constant Hcp: 0.01

COc1ccc(Cl)c(Cl)c1 [1,2-dichloro-4-methoxybenzene]
Henry solubility constant Hcp: 0.0092

COc1cc(Cl)cc(Cl)c1 [1,3-dichloro-5-methoxybenzene]
Henry solubility constant Hcp: 0.0023

COc1cccc(Br)c1 [1-bromo-3-methoxybenzene]
Henry solubility constant Hcp: 0.0072

COc1cc(Cl)c(Br)c(Cl)c1 [4-bromo-3,5-dichloro-1-methoxybenzene]
Henry solubility constant Hcp: 0.011
